Reference: patent US7078165B2, “Method for modulating Nod1 activity, use of a MTP related molecule for modulating Nod1 activity, and therapeutic applications thereof” (Institut Pasteur, priority 2003, dated 2006)
Blank lines part the entries; values can stand above or below the compound they belong to.

Key:
[1] = biological target: T1, Nod2 (Homo sapiens, UniProt Q9HC29); settings: cited from earlier work
T1 construct: expressed in transfected cells

[2] = biological target: T2, Nod1 (Homo sapiens, UniProt Q9Y239); assay: Nod1-dependent NF-κB luciferase activation in Nod1-overexpressing HEK293 cells; type: cell-based; set-up: expressed in transfected cells; host or cells: HEK293; settings: for detection by Nod1: FIG. 8B-8D, additional experiments; for Nod1-dependent activation of NF-κB by muropeptides: 10 ng (FIG. 2d); for stimulation of the Nod1 pathway by HPLC fractions of N. meningitidis PGN muropeptides: 1% of the volume of each HPLC fraction (FIG. 2b); for stimulation of the Nod1 pathway (NF-κB activation): LPS, lipid A, lipoproteins preparations at 10 μg/ml (FIG. 1a, 1b)
T2 sequence (Q9Y239 1-953): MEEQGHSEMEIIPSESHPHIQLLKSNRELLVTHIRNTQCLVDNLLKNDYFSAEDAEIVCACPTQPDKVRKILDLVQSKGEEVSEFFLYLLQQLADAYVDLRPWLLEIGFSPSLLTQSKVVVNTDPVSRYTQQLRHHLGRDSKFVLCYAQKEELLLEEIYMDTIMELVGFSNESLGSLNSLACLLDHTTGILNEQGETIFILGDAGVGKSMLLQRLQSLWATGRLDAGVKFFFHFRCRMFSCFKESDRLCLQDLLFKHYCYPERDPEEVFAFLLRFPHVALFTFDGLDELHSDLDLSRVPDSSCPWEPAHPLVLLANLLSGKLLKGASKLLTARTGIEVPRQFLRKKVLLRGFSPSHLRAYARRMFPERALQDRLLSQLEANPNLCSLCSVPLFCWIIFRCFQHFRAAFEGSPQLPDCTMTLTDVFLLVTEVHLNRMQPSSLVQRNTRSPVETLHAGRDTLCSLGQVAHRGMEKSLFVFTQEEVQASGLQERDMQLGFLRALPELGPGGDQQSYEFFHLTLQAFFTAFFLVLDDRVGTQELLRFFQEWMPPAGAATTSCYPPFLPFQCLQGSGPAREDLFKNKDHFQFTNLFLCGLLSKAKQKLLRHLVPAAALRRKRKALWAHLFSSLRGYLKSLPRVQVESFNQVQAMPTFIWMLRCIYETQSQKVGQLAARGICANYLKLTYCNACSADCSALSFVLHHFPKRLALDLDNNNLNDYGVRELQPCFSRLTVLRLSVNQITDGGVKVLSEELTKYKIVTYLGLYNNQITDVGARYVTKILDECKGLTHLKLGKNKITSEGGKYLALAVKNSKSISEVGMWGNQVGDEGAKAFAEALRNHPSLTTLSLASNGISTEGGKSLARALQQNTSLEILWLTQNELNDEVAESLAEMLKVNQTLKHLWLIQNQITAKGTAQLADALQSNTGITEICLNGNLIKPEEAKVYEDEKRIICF
Method: (§1) Studies examining the activation of NF-κB by LPS, lipid A, lipoproteins or the purified PGNs in cells over-expressing Nod1 were carried out as described by Inohara et al. (9). Briefly, HEK293 cells were transfected overnight with 10 ng of Nod 1. At the same time, the LPS, lipoproteins or peptidoglycan preparations were added and the NF-κB-dependent luciferase activation was then measured following 24 h of co-incubation.
(§2) NF-κB-dependent luciferase assays were performed in duplicate and data represent at least 3 independent experiments.

[3] = biological target: T2, Nod1; assay: Nod1-dependent IL-8 production in HeLa epithelial cells (ELISA); type: cell-based; set-up: expressed in transfected cells; settings: HeLa cells transfected with 10 ng Nod1; 18 h; IL-1 at 10 ng/ml (FIG. 2f)
Method: To measure Nod1-dependent IL-8 produced in epithelial cells by muropeptides, 5×10^5HeLa cells were seeded into each well of a twelve well plate and transfected the following day with 10 ng Nod1 plus the individual muropeptides (as described above) or treated with IL-1 as a positive control. Eighteen hours later, supernatants were collected and assayed for IL-8 as previously described (10) using an ELISA kit (R and D Systems).
(§3) In FIG. 2a, PGN muropeptides from N. meningitides were separated by reverse-phase HPLC and subsequently analysed by mass spectroscopy (see supporting on-line text). […] In FIG. 2d, equivalent amounts (10 ng) of GM-dipeptide (GM-di; synthetic source), GM-tripeptide (GMtri), or GM-tetrapeptide (GM-tetra) were tested for stimulation of Nod 1-, Nod2- or TLR2-dependent activation of NF-κB. […] Buff, buffer diluent of the muropeptides.

[4] = tested on: NF-κB p65 in intestinal epithelial cells from Nod1-deficient mice; assay: NF-κB p65 nuclear translocation in intestinal epithelial cells from Nod1-deficient mice; type: cell-based; settings: microinjection of supernatants; TNFα 10 ng/ml
[5] = tested on: macrophages; assay: Activation of macrophages; type: cell-based
[6] = biological target: T1, Nod2; assay: Nod2-dependent activation of NF-κB; type: cell-based; settings: 10 ng (FIG. 2d)
Method: as §1, §2, §3

T1 sequence (Q9HC29 whole entry): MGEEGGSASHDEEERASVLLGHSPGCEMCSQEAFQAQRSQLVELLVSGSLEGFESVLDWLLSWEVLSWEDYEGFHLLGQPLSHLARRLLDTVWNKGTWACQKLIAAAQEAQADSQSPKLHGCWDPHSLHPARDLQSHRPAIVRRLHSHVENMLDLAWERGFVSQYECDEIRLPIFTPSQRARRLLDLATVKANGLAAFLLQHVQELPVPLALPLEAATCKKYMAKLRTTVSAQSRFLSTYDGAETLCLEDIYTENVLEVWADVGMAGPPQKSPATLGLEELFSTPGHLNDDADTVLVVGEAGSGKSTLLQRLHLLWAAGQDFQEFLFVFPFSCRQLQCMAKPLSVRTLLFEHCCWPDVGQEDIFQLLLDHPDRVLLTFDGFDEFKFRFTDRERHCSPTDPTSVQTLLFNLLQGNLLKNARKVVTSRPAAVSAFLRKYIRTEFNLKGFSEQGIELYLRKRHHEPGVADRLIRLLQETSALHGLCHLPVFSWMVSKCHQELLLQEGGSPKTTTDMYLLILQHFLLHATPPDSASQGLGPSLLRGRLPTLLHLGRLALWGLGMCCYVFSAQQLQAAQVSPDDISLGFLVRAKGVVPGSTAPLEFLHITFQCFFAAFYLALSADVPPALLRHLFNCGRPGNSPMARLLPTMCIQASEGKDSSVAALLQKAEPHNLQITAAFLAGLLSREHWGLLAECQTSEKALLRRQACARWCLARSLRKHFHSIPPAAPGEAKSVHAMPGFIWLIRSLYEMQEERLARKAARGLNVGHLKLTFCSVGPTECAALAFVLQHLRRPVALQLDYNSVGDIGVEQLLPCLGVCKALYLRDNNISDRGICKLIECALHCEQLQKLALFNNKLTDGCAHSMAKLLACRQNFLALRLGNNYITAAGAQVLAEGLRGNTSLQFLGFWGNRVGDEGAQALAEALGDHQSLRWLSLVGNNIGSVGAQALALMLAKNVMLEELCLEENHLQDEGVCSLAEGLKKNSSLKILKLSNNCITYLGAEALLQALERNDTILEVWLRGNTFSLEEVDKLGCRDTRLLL

Compound: CC(=O)N[C@H]1C(O)O[C@H](CO)[C@@H](O)[C@@H]1O[C@H](C)C(=O)N[C@@H](C)C(=O)N[C@H](CCC(=O)O)C(N)=O (mixture of isomers) [M-dipeptide, muramyl dipeptide]
recognition by Nod2 (previous findings) [1]: recognizes

Compound: C[C@H](N)C(=O)N[C@H](CCC(=O)NC(CCCC(N)C(=O)O)C(=O)O)C(=O)O (stereo partly drawn) [tripeptide L-Ala-D-Glu-mesoDAP, L-Ala-D-Glu-mesoDAP]
detection by Nod1 [2]: able to sense
detection by Nod1 ([2]; listed as TriDAP): detects

Compound: GlcNAc-MurNAc-L-Ala-D-Glu-mesoDAP [GM-tripeptide]
production of IL-8 [3]: production of the pro-inflammatory chemokine, IL-8
Nod1-dependent activation of NF-κB by muropeptides [2]: specifically detects
stimulation of the Nod1 pathway by HPLC fractions of N. meningitidis PGN muropeptides [2]: activates Nod1
detection by Nod1 [2]: detects

Compound: TNFα
NF-κB nuclear translocation in Nod1-deficient cells [4]: can efficiently stimulate NF-κB nuclear translocation

Compound: GlcNAc-MurNAc-L-Ala-D-Glu-mesoDAP(GlcNAc-MurNAc-L-Ala-D-Glu-mesoDAP-D-Ala)-D-Ala [dimeric GM-tetrapeptide, reference compound]
stimulation of the Nod1 pathway by HPLC fractions of N. meningitidis PGN muropeptides [2]: does not activate Nod1

detection by Nod1 [2]: detects
Compound: CC(=O)NC1C(O)OC(CO)C(O)C1OC(C)C(=O)NC(C)C(=O)NC(CCC(=O)NC(CCCC(N)C(=O)O)C(=O)O)C(=O)O (stereo not drawn) [MurTriDAP]

stimulation of the Nod1 pathway (NF-κB activation) [2]: could not stimulate the Nod1 pathway
Compound: lipid A [reference compound]
activation of macrophages [5]: could efficiently activate macrophages

Compound: GlcNAc-anhydro-MurNAc-L-Ala-D-GlumesoDAP [anhydrous GM-tripeptide]
stimulation of the Nod1 pathway by HPLC fractions of N. meningitidis PGN muropeptides [2]: activates Nod1

Nod2-dependent activation of NF-κB by muropeptides [6]: detects
Compound: CC(=O)N[C@H]1[C@H](O[C@H]2[C@H](O[C@H](C)C(=O)N[C@@H](C)C(=O)N[C@H](CCC(=O)O)C(N)=O)[C@@H](NC(C)=O)C(O)O[C@@H]2CO)O[C@H](CO)[C@@H](O)[C@@H]1O (stereo partly drawn) [GM-dipeptide]

Compound: GlcNAc-MurNAc-L-Ala-D-Glu-mesoDAP-DAla [GM-tetrapeptide]
Nod1-dependent activation of NF-κB by muropeptides [2]: not sensed

detection by Nod1 [2]: detects
Compound: CC(=O)N[C@H]1[C@@H](OP(=O)(O)OP(=O)(O)OC[C@H]2O[C@@H](n3ccc(=O)[nH]c3=O)[C@H](O)[C@@H]2O)O[C@H](CO)[C@@H](O)[C@@H]1O[C@H](C)C(=O)N[C@@H](C)C(=O)N[C@H](CCC(=O)N[C@@H](CCC[C@@H](N)C(=O)O)C(=O)O)C(=O)O [UDP-MurTriDAP]

Compound: Lpp: the most abundant lipoprotein in E. coli (lipidated)
stimulation of the Nod1 pathway (NF-κB activation) [2]: not possible to stimulate the Nod1 pathway

Compound: Pam3Cys-Ser-Lys4-OH [synthetic lipopeptide, reference compound]
stimulation of the Nod1 pathway (NF-κB activation) [2]: not possible to stimulate the Nod1 pathway
